Test results: US10294202B2, “Pyrrolidinones as herbicides” (FMC Corporation, priority 2013, dated 2019)

How the values were obtained:
barnyardgrass = assay: Test C flooded paddy test; assay type: in vivo, Echinochloa crus-galli; conditions: Flood
How it was run: (§1)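 Visual injury scored against controls after 13 to 15 days in the greenhouse, using 0 (no effect) to 100 (complete control). Test compounds went straight into paddy water held 3 cm above the soil surface on 2-leaf-stage plants, with that flood depth maintained for the whole test.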

ducksalad = assay: Test C flooded paddy test; assay type: in vivo, Heteranthera limosa; conditions: Flood
How it was run: as §1

ragweed = assay: Test A pre-/postemergence herbicide test; assay type: in vivo, Ambrosia elatior
How it was run: (§2)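 Directed soil spray to seeded pots (preemergence) or spray onto one- to two-leaf seedlings 2–10 cm tall (postemergence); loam/sand substrate throughout. Evaluated visually after about 10 days against untreated plants, 0 = no effect, 100 = complete control.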

kochia = assay: Test A pre-/postemergence herbicide test; assay type: in vivo, Kochia scoparia
How it was run: as §2

chickweed = assay: Test C postemergence herbicide test; assay type: in vivo, Stellaria media
How it was run: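 Response is scored visually on a 0–100 scale (100 = complete control) relative to untreated controls, 13 to 15 days after treatment. Plants were sprayed postemergence at the 1- to 4-leaf stage (2 to 18 cm tall) and kept in a greenhouse.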

ryegrass, Italian = assay: Test A pre-/postemergence herbicide test; assay type: in vivo, Lolium multiflorum
How it was run: as §2

galium = assay: Test A postemergence herbicide test; assay type: in vivo, Galium aparine; conditions: for Plant response rating, Galium: 125 g ai/ha; for Galium plant response rating (0 to 100 scale, 0 is no effect, 100 is complete control): 500 g ai/ha
How it was run: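 Young potted plants in a loam–sand mix, one- to two-leaf stage and 2–10 cm tall, receive the test chemical postemergence and stay in a greenhouse for approximately 10 days. Injury is then judged by eye against untreated plants, scored 0 (none) to 100 (complete control).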

[1] = 125 g ai/ha, scale of 0 to 100 where 0 is no effect and 100 is complete control, 13 to 15 days
[2] = 250 g ai/ha, scale of 0 to 100 where 0 is no effect and 100 is complete control, 13 to 15 days
[3] = 125 g ai/ha, visual rating, 0 to 100 scale, 0 no effect, 100 complete control, approximately 10 days, preemergence
[4] = Postemergence, 125 g ai/ha, 0 to 100 scale, 0 is no effect, 100 is complete control
[5] = preemergence, 500 g ai/ha, 0 to 100 scale, 0 is no effect and 100 is complete control
[6] = 31 g ai/ha, scale 0 to 100 (0 no effect, 100 complete control)
[7] = 62 g ai/ha, scale 0 (no effect) to 100 (complete control)
[8] = 125 g ai/ha, scale 0 to 100 (0 no effect, 100 complete control)
[9] = 250 g ai/ha, scale 0 to 100 (0 no effect, 100 complete control)
[10] = 0 to 100 scale, 0 is no effect, 100 is complete control
[11] = 31 g ai/ha, scale of 0 to 100 where 0 is no effect and 100 is complete control, 13 to 15 days
[12] = 62 g ai/ha, scale of 0 to 100 where 0 is no effect and 100 is complete control, 13 to 15 days
[13] = Postemergence, 125 g ai/ha, visual rating on 0 to 100 scale (0 no effect, 100 complete control), approx. 10 days
[14] = Preemergence, 125 g ai/ha, 0 to 100 scale where 0 is no effect and 100 is complete control
[15] = Preemergence, 500 g ai/ha, visual rating on 0 to 100 scale (0 no effect, 100 complete control)

Row | SMILES | Plant response rating, Barnyardgrass (barnyardgrass; [1]) | Plant response rating, Barnyardgrass (barnyardgrass; [2]) | Plant response rating, Barnyardgrass (barnyardgrass; 500 g ai/ha, scale 0 to 100) | Plant response rating, Barnyardgrass (barnyardgrass; 1000 g ai/ha, scale 0 to 100) | Plant response rating, Ducksalad (ducksalad; [1]) | Plant response rating, Ducksalad (ducksalad; [2]) | Plant response rating, Ducksalad (ducksalad; 500 g ai/ha, scale 0 to 100) | Plant response rating, Ducksalad (ducksalad; 1000 g ai/ha, scale 0 to 100) | Plant response rating, Ragweed (ragweed; [3]) | Plant response rating, Ragweed (ragweed; [4]) | Ragweed plant response rating (0 to 100 scale, 0 is no effect, 100 is complete control) (ragweed; Postemergence, 500 g ai/ha) | Plant response rating, Ragweed (ragweed; [5]) | Plant response rating, Kochia (kochia; [3]) | Plant response rating, Kochia (kochia; [4]) | Kochia plant response rating (0 to 100 scale, 0 is no effect, 100 is complete control) (kochia; Postemergence, 500 g ai/ha) | Plant response rating, Kochia (kochia; [5]) | Plant response rating, Chickweed (chickweed; [6]) | Plant response rating, Chickweed (chickweed; [7]) | Plant response rating, Chickweed (chickweed; [8]) | Plant response rating, Chickweed (chickweed; [9]) | further results
1 | O=C1NC[C@H](c2cccc(C(F)(F)F)c2)[C@H]1C(=O)Nc1cccc(F)c1F [Compound 206] | 35 | 60 | 75 | 85 | 90 | 100 | 100 | 100 | 60 | 0 | 50 | 70 | 70 | 70 | 70 | 80 | 85 | 60 | 85 | 85 | Plant response rating, Ryegrass, Italian (ryegrass, Italian; [3]): 40; Plant response rating, Ryegrass, Italian (ryegrass, Italian; [4]): 50; Ryegrass, Italian plant response rating (0 to 100 scale, 0 is no effect, 100 is complete control) (ryegrass, Italian; Postemergence, 500 g ai/ha): 60; Plant response rating, Ryegrass, Italian (ryegrass, Italian; [5]): 80; Plant response rating, Galium (galium; [10]): 70; Galium plant response rating (0 to 100 scale, 0 is no effect, 100 is complete control) (galium): 80
2 | O=C1NCC(c2cccc(OC(F)F)c2)C1C(=O)Nc1cccc(F)c1F (centres unmarked) [Compound 224] | 40 | 60 | – | – | 80 | 100 | – | – | 90 | 40 | 60 | 90 | 80 | 80 | 90 | 90 | 70 | 70 | 70 | 85 | Plant response rating, Barnyardgrass (barnyardgrass; [11]): 0; Plant response rating, Barnyardgrass (barnyardgrass; [12]): 20; Plant response rating, Ducksalad (ducksalad; [11]): 0; Plant response rating, Ducksalad (ducksalad; [12]): 40; Plant response rating, Ryegrass, Italian (ryegrass, Italian; [3]): 60; Plant response rating, Ryegrass, Italian (ryegrass, Italian; [4]): 50; Ryegrass, Italian plant response rating (0 to 100 scale, 0 is no effect, 100 is complete control) (ryegrass, Italian; Postemergence, 500 g ai/ha): 60; Plant response rating, Ryegrass, Italian (ryegrass, Italian; [5]): 70; Plant response rating, Galium (galium; [10]): 70; Galium plant response rating (0 to 100 scale, 0 is no effect, 100 is complete control) (galium): 70
3 | O=C1NCC(c2ccc(F)c(F)c2)C1C(=O)Nc1ccc(F)c(F)c1F (centres unmarked) [Compound 346] | 30 | 45 | 65 | 70 | 95 | 100 | 100 | 100 | – | – | – | – | – | – | – | – | 40 | 65 | 40 | 85 | Plant response rating, Ragweed (ragweed; [13]): 0; Plant response rating, Ragweed (ragweed; [14]): 0; Ragweed plant response rating (ragweed; [15]): 0; Plant response rating, Kochia (kochia; [13]): 0; Plant response rating, Kochia (kochia; [14]): 0; Kochia plant response rating (kochia; [15]): 80; Plant response rating, Ryegrass, Italian (ryegrass, Italian; [13]): 20; Plant response rating, Ryegrass, Italian (ryegrass, Italian; [14]): 0; Ryegrass, Italian plant response rating (ryegrass, Italian; [15]): 30; Plant response rating, Galium (galium; visual rating on 0 to 100 scale (0 no effect, 100 complete control), approx. 10 days): 30
